“Also recorded” adds a separate entry of the source.
Assays:
[1] = target: human Kv1.3 channel (Homo sapiens, UniProt P22001); type: cell-based
[2] = system: human PBMCs; type: cell-based
[3] = system: human PBMCs; type: cell-based; remark: listed apart in the source
[4] = system: AT-EAE model; parameters: species or system Lewis rats; details: rat, in vivo, sc
[5] = system: IFN-g production in human whole blood; type: cell-based
[6] = system: CD40L on T cells in human whole blood; type: cell-based
[7] = system: IL-2R on T cells in human whole blood; type: cell-based
[8] = rat, in vivo, iv
[9] = system: IL-2 production in human whole blood
[10] = system: human PBMCs; type: cell-based; remark: listed apart in the source
[11] = target: HEK 293 cells overexpressing human Kv1.3 (Homo sapiens, UniProt P22001); assay: Immunohistochemistry analysis of binding to HEK 293 cells overexpressing human Kv1.3; details: 5 μg/ml
HEK 293 cells overexpressing human Kv1.3, sequence (P22001 whole entry): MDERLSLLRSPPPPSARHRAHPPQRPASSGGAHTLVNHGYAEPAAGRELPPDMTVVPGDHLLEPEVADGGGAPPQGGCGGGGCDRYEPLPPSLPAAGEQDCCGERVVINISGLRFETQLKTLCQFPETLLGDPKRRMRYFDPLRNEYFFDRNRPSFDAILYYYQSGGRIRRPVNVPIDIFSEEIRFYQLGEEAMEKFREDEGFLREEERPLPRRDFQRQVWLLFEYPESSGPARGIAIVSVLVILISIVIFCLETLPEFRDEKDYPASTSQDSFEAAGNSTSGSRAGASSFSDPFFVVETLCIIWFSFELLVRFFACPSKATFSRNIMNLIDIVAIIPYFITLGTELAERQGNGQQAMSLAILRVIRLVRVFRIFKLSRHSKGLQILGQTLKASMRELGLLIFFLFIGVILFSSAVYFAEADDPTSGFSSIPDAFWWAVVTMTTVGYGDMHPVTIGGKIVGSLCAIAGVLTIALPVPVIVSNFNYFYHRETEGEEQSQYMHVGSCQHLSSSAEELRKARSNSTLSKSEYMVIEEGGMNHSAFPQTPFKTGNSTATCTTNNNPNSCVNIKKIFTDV
Method: Immunohistochemistry analysis of Fc-L10-ShK[1-35] binding to HEK 293 cells overexpressing human Kv1.3. HEK 293 cells overexpressing human Kv1.3 (HEK Kv1.3) were obtained from BioFocus plc (Cambridge, UK) and maintained per manufacturer's recommendation. The parental HEK 293 cell line was used as a control. Cells were plated on Poly-D-Lysine 24 well plates (#35-4414; Becton-Dickinson, Bedford, Mass.) and allowed to grow to approximately 70% confluence. HEK KV1.3 were plated at 0.5×10e5 cells/well in 1 ml/well of medium. HEK 293 cells were plated at a density of 1.5×10e5 cells/well in 1 ml/well of medium. Before staining, cells were fixed with formalin (Sigma HT50-1-1 Formalin solution, diluted 1:1 with PBS/0.5% BSA before use) by removing cell growth medium, adding 0.2 ml/well formalin solution and incubating at room temperature for ten minutes. Cells were stained by incubating with 0.2 ml/well of 5 μg/ml Fc-L10-ShK[1-35] in PBS/BSA for 30′ at room temperature. Fc-L10-ShK[1-35] was aspirated and then the cells were washed one time with PBS/0.5% BSA. Detection antibody (Goat F(ab)2 anti-human IgG-phycoerythrin; Southern Biotech Associates, Birmingham, Ala.) was added to the wells at 5 μg/ml in PBS/0.5% BSA and incubated for 30′ at room temperature. Wash cells once with PBS/0.5% BSA and examine using confocal microscopy (LSM 510 Meta Confocal Microscope; Carl Zeiss AG, Germany). […]

[12] = target: Kv1.3 transfected HEK 293 cells (Homo sapiens, UniProt P22001); assay: Whole cell immunoassay (ELISA) on fixed HEK 293 cells overexpressing Kv1.3; type: binding
Kv1.3 transfected HEK 293 cells, sequence (P22001 whole entry): as above
Method: Our peptibody reagent can be a useful and convenient tool for monitoring Kv1.3 channel expression in patients and have utility in diagnostic applications. The procedure shown in FIG. 34A and FIG. 34B follows.
FIG. 34A. A whole cell immunoassay was performed to show binding of intact Fc-L10-ShK[1-35] to Kv1.3 transfected HEK 293 cells (BioFocus plc, Cambridge, UK). Parent HEK 293 cells or HEK Kv1.3 cells were plated at 3×10e4 cells/well in poly-D-Lysine coated ninety-six well plates (#35-4461; Becton-Dickinson, Bedford, Mass.). Cells were fixed with formalin (Sigma HT50-1-1 Formalin solution, diluted 1:1 with PBS/0.5% BSA before use) by removing cell growth medium, adding 0.2 ml/well formalin solution and incubating at room temperature for 25 minutes and then washing one time with 100 μl/well of PBS/0.5% BSA. Wells were blocked by addition of 0.3 ml/well of BSA blocker (50-61-00; KPL 10% BSA Diluent/Blocking Solution, diluted 1:1 with PBS; KPL, Gaithersburg, Md.) followed by incubation at room temperature, with shaking, for 3 hr. Plates were washed 2 times with 1×KP Wash Buffer (50-63-00; KPL). […] Absorbance was read at 450 nm on a Molecular Devices SpectroMax 340 (Sunnyvale, Calif.).
FIG. 34B. […] Absorbances were read at 405 nm after stopping reactions by addition of 0.1 ml/well of 1% SDS.

human Kv1.3 channel, sequence (P22001 whole entry): as above

Compound	block of human Kv1.3 current (in words) [1]	inhibition of IFNγ production [2]	inhibition of IFNg production [3]	average body weight lost [4]	disease severity and survival (in words) [4]	onset of disease [4]	thapsigargin-induced IFN-g production (in words) [5]	thapsigargin-induced upregulation of CD40L on T cells (in words) [6]	thapsigargin-induced upregulation of the IL-2R on T cells (in words) [7]	time with significant suppression of Kv1.3 current (<70 POC) by 5% serum Test solutions [8]	thapsigargin-induced IL-2 production (in words) [9]	inhibition of T cell proliferation [10]	staining of HEK 293 cells stably transfected with human Kv1.3 [11]	binding to fixed cells that overexpress Kv1.3 [12]
CC[C@H](C)[C@@H]1NC(=O)[C@@H](NC(=O)[C@H](CO)NC(=O)[C@@H](N)CCCNC(=N)N)CSSC[C@@H](C(=O)O)NC(=O)[C@H]([C@@H](C)O)NC(=O)CNC(=O)[C@@H]2CSSC[C@@H]3NC(=O)[C@H](CCC(N)=O)NC(=O)[C@H](Cc4ccccc4)NC(=O)[C@H](C)NC(=O)[C@H]([C@@H](C)O)NC(=O)[C@H](CSSC[C@H](NC(=O)[C@H](Cc4ccccc4)NC(=O)[C@H](CO)NC(=O)[C@H](CC(C)C)NC(=O)[C@H](CCCNC(=N)N)NC(=O)[C@H](Cc4ccc(O)cc4)NC(=O)[C@H](CCCCN)NC(=O)[C@H](CCSC)NC(=O)[C@H](CO)NC(=O)[C@H](Cc4cnc[nH]4)NC(=O)[C@H](CCCCN)NC3=O)C(=O)N[C@@H](CCCNC(=N)N)C(=O)N[C@@H](CCCCN)C(=O)N[C@@H]([C@@H](C)O)C(=O)N2)NC(=O)[C@H](CCCNC(=N)N)NC(=O)[C@H](CO)NC(=O)[C@H](CCCCN)NC(=O)[C@@H]2CCCN2C(=O)[C@H]([C@@H](C)CC)NC(=O)[C@H]([C@@H](C)O)NC(=O)[C@H](CC(=O)O)NC1=O [ShK, reference compound]	potently block Kv1.3	only a partial inhibition	only partial inhibition	30 g	developed severe disease and died	4 days	suppressed	suppressed	suppressed	≤ 1 h	suppressed	–	–	–
Fc-L10-ShK[1-35]: Fc region of human IgG1 fused via L10 linker to Kv1.3 inhibitor peptide ShK[1-35]	–	complete inhibition of the response	nearly complete inhibition	–	–	–	–	suppressed	suppressed	–	–	blocked T cell proliferation; also recorded: potently inhibits proliferation of T cells in a dose-dependent manner	stains HEK 293 cells stably transfected with human Kv1.3	dose-dependent increase in response; also recorded: high affinity binding to its target

Reference: patent US7825093B2 (priority 2006, dated 2010)
